The values that follow are results of earlier work, collected in patent US20220142893A1, “THE PROCESS OF DYEING KERATINOUS MATERIAL COMPRISING THE USE OF AN ORGANOSILICON COMPOUND, TWO COLOR-IMPARTING COMPOUNDS AND A FILM-FORMING POLYMER” (Henkel AG & Co. KGaA, priority 2019, published 2022).

For this data set the following is noted: 25° C.

Turning to `O=S(=O)([O-])c1ccc(N=Nc2c(O)ccc3ccccc23)cc1.[Na+]` [Acid Orange 7, sodium salt of 4-[(2-hydroxy-1-naphthyl)azo]benzene sulphonate], the solubility in water entry is “more than 7 g/L”.

On to `Nc1cc(S(=O)(=O)[O-])cc2cc(S(=O)(=O)[O-])c(N=Nc3ccccc3)c(O)c12.[Na+].[Na+]` [Acid Red 33, disodium salt of 5-amino-4-hydroxy-3-(phenylazo)-naphthalene-2,7-disulphonate], for which the solubility in water is 2500 µg/mL.

As to `O=C([O-])c1c(Cl)c(Cl)c(Cl)c(Cl)c1-c1c2c(Br)cc(=O)c(Br)c-2oc2c(Br)c(O)cc(Br)c12.O=C([O-])c1c(Cl)c(Cl)c(Cl)c(Cl)c1-c1c2c(Br)cc(=O)c(Br)c-2oc2c(Br)c(O)cc(Br)c12.[Na+].[Na+]` [Acid Red 92, disodium salt of 3,4,5,6-tetrachloro-2-(1,4,5,8-tetrabromo-6-hydroxy-3-oxoxanthen-9-yl)benzoic acid], the solubility in water entry is given as “greater than 10 g/L”.

As for `O=C([O-])C1=NN(c2ccc(S(=O)(=O)[O-])cc2)C(=O)C1N=Nc1ccc(S(=O)(=O)[O-])cc1.[Na+].[Na+].[Na+]` (stereo not shown) [Acid Yellow 23, trisodium salt of 4,5-dihydro-5-oxo-1-(4-sulfophenyl)-4-((4-sulfophenyl)azo)-1H-pyrazole-3-carboxylic acid], the “solubility in water (in words)” value was “highly soluble”.
